Results: patent US20250354999A1, “BIOMARKERS OF LYSOSOMAL STORAGE DISEASE” (Genzyme Corporation, priority 2022, published 2025)
Entries after “also recorded” stand apart in the source; their conditions may differ.

Key:
Format in all cases: in vivo, human
CD63 [1] = test: CD63 level in plasma of Fabry patients on treatment (Olink profiling; Sanofi-Venglustat Phase II ACT/LTS trial)
Method: CD63 was measured by Olink® profiling, as described below, using the Olink® Target96 Neuro-Exploratory panel (Olink Proteomics AB, Uppsala, Sweden) according to the manufacturer's instructions.
Protein detection can be performed using Olink® (Olink Proteomics AB, Uppsala, Sweden) profiling in accordance with the manufacturer's recommended protocols (for exemplary methods, see, e.g., Assarsson et al., PLoS ONE (2014) 9(4):e95192; and Jabbari et al., Journal of Neurology, Neurosurgery & Psychiatry (2019) 90:768-773). The Proximity Extension Assay (PEA) technology used for the Olink® protocol has been well described (Assarsson et al., 2014, supra), and enables 92 analytes per panel to be analysed simultaneously, using 1 μL of each sample. In brief, pairs of oligonucleotide-labelled antibody probes bind to their targeted protein, and if the two probes are brought in close proximity the oligonucleotides will hybridize in a pair-wise manner. The addition of a DNA polymerase leads to a proximity-dependent DNA polymerization event, generating a unique PCR target sequence. The resulting DNA sequence can subsequently be detected and quantified using a microfluidic real-time PCR instrument (Biomark HD, Fluidigm). Data is then quality controlled and normalized using an internal extension control and an inter-plate control, to adjust for intra- and inter-run variation. The final assay read-out is presented in Normalized Protein expression (NPX) values, which is an arbitrary unit on a log 2-scale where a high value corresponds to a higher protein expression. All assay validation data (e.g., detection limits, intra- and inter-assay precision data, etc.), experimental protocols, and data processing are available on the manufacturer's website (www.olink.com).
The ACT/LTS samples were taken from the Sanofi-Venglustat Phase II trial. This trial consisted only of male patients. The Sanofi-Venglustat Phase II trial was a longitudinal study, and patient plasma was collected at 6 set intervals: Baseline (0 weeks), 12 weeks, 26 weeks, 52 weeks, 104.2 weeks, and 156.4 weeks. There are missing timepoints for some patients. During this trial, all patients were treated with venglustat (a substrate reduction therapy-SRT).
Cohort 1 is a collection of plasma samples provided by Dr. Gavin Oudit from the University of Alberta. Briefly, these plasma samples were from a mix of male and female patients with ages ranging from 25 to 68. They were non-longitudinal samples (e.g. 1 sample per patient), and the plasma samples were a mix of treated Fabry patients (enzyme replacement therapy-ERT), untreated Fabry patients, and healthy control subjects.
Cohort 2 is a collection of plasma samples provided by Dr. Michael Mauer from the University of Minnesota. […]

GL3 = GL3 level in plasma of Fabry patients on venglustat (ESI-LC-MS/MS); settings: Fabry disease patients, venglustat clinical trial over time
Method: (§1) Glycosphingolipids (lyso-GL1, GL3, and lyso-GL3) were measured by ESI-LC-MS/MS according to the method described in Murugesan et al., Am J Hematol. (2016) 91(11):1082-1089. In brief, 20 μL aliquots of plasma were added to 1 mL of chloroform:methanol (2:3) in an Eppendorf tube, mixed and then centrifuged. Supernatant was removed and extracted with chloroform (220 μL) and water (520 μL) by mixing and centrifugation. The upper phase was re-extracted with chloroform and added to the lower phase. The combined sample was dried, resuspended in 100 μL methanol:water (9:1) and injected into an LC-MS/MS system for tandem mass spectroscopic analysis. Separation of glycosphingolipids and other matrix components was achieved using UPLC under gradient conditions with two mobile phases: 0.1% formic acid in water; and 0.1% formic acid in acetonitrile. Mass spectrometry (MS) was performed in select ion monitoring mode, typically using the parent (M+H^+) ion transition (e.g. m/z 462.5>282.4 for lyso-GL1). Assays were calibrated using known glycosphingolipid standards (dimethylpsychosine, 13C6-labelled lyso-GL3 (GelbChem), and C17-GL3 (Matreya LLC, cat no. 1523) as internal standards for lyso-GL1, lyso-GL3, and GL3 respectively).
(§2) The ACT/LTS samples were taken from the Sanofi-Venglustat Phase II trial. This trial consisted only of male patients. […]

lyso-GL3 = lyso-GL3 level in plasma of Fabry patients on venglustat (ESI-LC-MS/MS)
Method: as §1, §2

CD63 [2] = test: CD63 level in CSF of type 3 Gaucher disease patients on treatment (Olink Explore; LEAP trial); settings: GD3 patients, baseline, 26 weeks and 52 weeks on combination treatment of venglustat and imiglucerase
Method: For the measurement of protein levels in CSF, the following protocol was employed: Biomarker expression in CSF was measured using four Olink® Explore panels (Cardiometabolic, Inflammation, Neurology, and Oncology), as described, e.g., by Wik et al. (“Proximity Extension Assay in Combination with NextGeneration Sequencing for High-throughput Proteome-wide Analysis, 2021, Mol Cell Proteomics 20, 100168). Briefly, 10 μL of CSF samples and Olink controls were placed into a 384-well Sample Source Plate and then diluted 1:10, 1:100, 1:1000 and 1:100,000 in 384-well Sample Diluent Plates using Mosquito and Dragonfly liquid handlers (both from SPT Labtech). For immunoreaction, these diluted samples were mixed with the Olink® probes (DNA oligo-conjugated antibodies) in 384-well Incubation Plates using the Mosquito handler and incubated at 4° C. for 16-24 hours. The following day, reagent mixtures for the first PCR amplification step (PCR1 step) were added to the immunoreaction mixtures using the Dragonfly handler, and PCR1 reaction for the pre-amplification step was conducted using ProFlex PCR System (Applied Biosciences). […] The four libraries were analyzed by Next Generation Sequencing using NovaSeq 6000 (Illumina). […]

[3] = Fabry disease patients vs healthy controls, during the trial period

CC(C)(NC(=O)O[C@@H]1CN2CCC1CC2)c1csc(-c2ccc(F)cc2)n1 [venglustat, (3S)-1-azabicyclo[2.2.2]octan-3-yl N-{2-[2-(4-fluorophenyl)-1,3-thiazol-4-yl]propan-2-yl}carbamate]
return of CD63 to control levels (CD63 [1]; [3]): do not return to control levels during the trial period
response of CD63 to treatment (CD63 [1]; Fabry disease patients, baseline to 156.4 weeks on treatment): decrease over a period of 30 months towards a healthy level; also recorded: show a response to treatment
time at which CD63 response to treatment is observed (CD63 [1]; Fabry disease patients, venglustat treatment): 12 weeks
first significant decrease in CD63 (estimated marginal mean, log 2) (CD63 [1]; Fabry disease patients, venglustat treatment, baseline to 156 weeks): ≤ 26 week
response of GL3 to treatment (GL3): show a response to treatment
return of lyso-GL3 to control levels (lyso-GL3; [3]): do not return to control levels during the trial period
response of lyso-GL3 to treatment (lyso-GL3; Fabry disease patients, venglustat clinical trial over time): show a response to treatment
change of CD63 levels in CSF on treatment (CD63 [2]): consistently led to a decrease in CD63 levels
